Laboratory results reported in article PMC9851200, “Multiparameter phenotypic screening for endogenous TFEB and TFE3 translocation identifies novel chemical series modulating lysosome function” (Autophagy, 2022).
Entries after “also recorded” stand apart in the source; their conditions may differ.

How the values were obtained:
[1] = test system: SRPK1, SRPK2; assay: KiNativ in-cell kinase binding, SRPK1, SRPK2; details: 2 µM
From the text: (§1) As KINOMEscan is an in vitro assay, and as different cell types have variable kinase expression profiles we sought to determine the kinase binding profile in our SH-SY5Y TFEB-relocalization cell model. […] Bound kinases were pulled down and analyzed by mass spectrometry to determine the in situ kinase binding profile for each compound.

[2] = target: T1, SRPK1 (Homo sapiens, UniProt Q96SB4); assay: KiNativ in-cell kinase binding, SRPK1; details: SH-SY5Y cells, Labeling Site Lys2
T1 construct: endogenous in cells; host or cells: SH-SY5Y
From the text: as §1

[3] = test system: TFEB; assay: Cellular fractionation and western blot of nuclear/cytoplasmic TFEB; assay type: cell-based; details: nuclear/cytoplasmic TFEB ratio, western blot
Protocol: Cells were washed with cold PBS (ThermoFisher Scientific/Gibco, 10,010–015) and lysed in RIPA buffer (0.5% Triton X-100, 10 mM Tris/HCl, pH 8.0, 1 mM EDTA (Sigma Aldrich, E6511), 0.5 mM EGTA (Sigma Aldrich, E3889), 0.1% sodium dodecyl sulfate [SDS], 0.02% sodium deoxycholate (Sigma Aldrich, D6750), and 140 mM NaCl (Sigma Aldrich, S9625) supplemented with protease-inhibitor cocktail (Sigma Aldrich/Roche, 4,693,132,001) and phosphatase inhibitors (Roche/Sigma Aldrich, 4,906,845,001) for 30 min at 4°C. The lysates were centrifuged at 13,000 g for 15 min and the supernatants collected. Protein concentration was quantified using BCA reagent (Thermofisher Scientific, 23,252) and 4× SDS Laemmli buffer was added. The samples were boiled at 95°C for 5 min before SDS-polyacrylamide gel electrophoresis (SDS-PAGE) using Mini-PROTEAN® Precast Gels (Bio-Rad, 4,568,094). Ten micrograms of protein per lane were separated by SDS/PAGE and transferred to a PVDF membrane using the Trans-Blot Turbo Transfer System (Bio-Rad, Hercules, CA, USA). […] Nuclear and cytoplasmic fractions were assessed with a LMNA/lamin A/C antibody (Santa Cruz Biotechnology, sc-7292) or GAPDH antibody (Abcam, ab9484), respectively.
Figure S5. […] (C) The levels of nuclear/cytoplasmic TFEB were quantified and presented as a ratio. […]

[4] = target: T2, TLK2 (Homo sapiens, UniProt Q86UE8); assay: KiNativ in-cell kinase binding, TLK2; details: SH-SY5Y cells
T2 construct: endogenous in cells; host or cells: SH-SY5Y
From the text: as §1

[5] = test system: CLEAR genes; assay: RT-qPCR of CLEAR gene expression; assay type: cell-based; details: SH-SY5Y, 1 µM compound, 48 h
Protocol: We assessed autophagic flux by quantifying LC3-II levels using western blotting in compound-treated cells in the presence or absence of the lysosomal inhibitor bafilomycin A1. […] Given the lack of correlation between the ability of the compounds to upregulate CLEAR genes, and changes in LC3-II levels, the action of the compounds was therefore independent of autophagic flux. SH-SY5Y cells were treated with compounds in 12-well or 24-well plates (Corning Costar, […]). Cell pellets were harvested and RNA was extracted using the RNeasy Mini Kit (QIAGEN, 74,104) according to manufacturer's instructions. cDNA was generated from 500 ng RNA using Superscript III Reverse Transcriptase (Thermofisher Scientific, 18,080,085). Expression of the CLEAR genes CTSD, HEXA, LAMP1, CLCN7, ATP6V0A1, SQSTM1, UVRAG and GABARAP were assessed using Fast SYBR Green Master Mix standard protocol (Thermofisher Scientific, 4,309,155), on a StepOnePlusTM Real-Time PCR System (Applied biosystems, Waltham, MA, USA). Primer sequences are shown in Table S7A and were designed in Primer3 or by OriGene Technologies and validated in house for efficiency and specificity.

[6] = test system: TFE3; assay: TFE3 translocation in CRISPRi PRKD2 or PRKD3 knockdown SH-SY5Y cells; assay type: cell-based; details: SH-SY5Y dCas9-KRAB, Scr, PRKD2 or PRKD3 targeting guides, increasing concentrations
[7] = target: MINK1/MINK (Homo sapiens, UniProt Q8N4C8); assay type: binding
[8] = target: MAPK9/JNK2 (Homo sapiens, UniProt P45984); assay type: binding
MAPK9/JNK2, sequence (P45984 whole entry): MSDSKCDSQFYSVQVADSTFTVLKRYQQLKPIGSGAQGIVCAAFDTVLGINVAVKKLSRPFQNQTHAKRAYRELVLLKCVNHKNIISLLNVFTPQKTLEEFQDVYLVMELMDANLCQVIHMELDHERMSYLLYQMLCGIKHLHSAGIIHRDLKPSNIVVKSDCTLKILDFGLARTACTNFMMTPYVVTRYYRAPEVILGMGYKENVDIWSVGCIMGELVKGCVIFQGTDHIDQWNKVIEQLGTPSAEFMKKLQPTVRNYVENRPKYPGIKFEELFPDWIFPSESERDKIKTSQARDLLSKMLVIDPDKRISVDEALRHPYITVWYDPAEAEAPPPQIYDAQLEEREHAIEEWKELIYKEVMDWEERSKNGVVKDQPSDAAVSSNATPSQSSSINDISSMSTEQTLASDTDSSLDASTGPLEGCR

T2 sequence (Q86UE8 whole entry): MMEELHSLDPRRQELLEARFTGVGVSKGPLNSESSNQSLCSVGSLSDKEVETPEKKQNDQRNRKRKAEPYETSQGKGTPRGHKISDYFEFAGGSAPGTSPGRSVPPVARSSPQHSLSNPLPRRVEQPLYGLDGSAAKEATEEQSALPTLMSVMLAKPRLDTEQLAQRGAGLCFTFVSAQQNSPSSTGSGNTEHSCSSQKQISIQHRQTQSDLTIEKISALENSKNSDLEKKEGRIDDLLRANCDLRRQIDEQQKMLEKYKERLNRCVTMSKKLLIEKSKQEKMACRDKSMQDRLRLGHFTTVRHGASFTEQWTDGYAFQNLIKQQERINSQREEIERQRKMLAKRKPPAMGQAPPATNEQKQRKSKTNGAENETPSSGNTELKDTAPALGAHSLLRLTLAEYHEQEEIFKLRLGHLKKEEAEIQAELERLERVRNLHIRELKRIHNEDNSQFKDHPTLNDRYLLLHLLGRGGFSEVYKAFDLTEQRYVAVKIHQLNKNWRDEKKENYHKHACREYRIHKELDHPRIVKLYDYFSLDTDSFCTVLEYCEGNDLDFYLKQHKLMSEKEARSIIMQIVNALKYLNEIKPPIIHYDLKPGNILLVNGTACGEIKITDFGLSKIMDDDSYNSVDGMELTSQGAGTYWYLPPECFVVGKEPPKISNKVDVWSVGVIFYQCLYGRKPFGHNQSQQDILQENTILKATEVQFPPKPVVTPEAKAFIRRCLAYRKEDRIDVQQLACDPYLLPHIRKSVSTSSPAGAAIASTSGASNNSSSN
MINK1/MINK, sequence (Q8N4C8 whole entry): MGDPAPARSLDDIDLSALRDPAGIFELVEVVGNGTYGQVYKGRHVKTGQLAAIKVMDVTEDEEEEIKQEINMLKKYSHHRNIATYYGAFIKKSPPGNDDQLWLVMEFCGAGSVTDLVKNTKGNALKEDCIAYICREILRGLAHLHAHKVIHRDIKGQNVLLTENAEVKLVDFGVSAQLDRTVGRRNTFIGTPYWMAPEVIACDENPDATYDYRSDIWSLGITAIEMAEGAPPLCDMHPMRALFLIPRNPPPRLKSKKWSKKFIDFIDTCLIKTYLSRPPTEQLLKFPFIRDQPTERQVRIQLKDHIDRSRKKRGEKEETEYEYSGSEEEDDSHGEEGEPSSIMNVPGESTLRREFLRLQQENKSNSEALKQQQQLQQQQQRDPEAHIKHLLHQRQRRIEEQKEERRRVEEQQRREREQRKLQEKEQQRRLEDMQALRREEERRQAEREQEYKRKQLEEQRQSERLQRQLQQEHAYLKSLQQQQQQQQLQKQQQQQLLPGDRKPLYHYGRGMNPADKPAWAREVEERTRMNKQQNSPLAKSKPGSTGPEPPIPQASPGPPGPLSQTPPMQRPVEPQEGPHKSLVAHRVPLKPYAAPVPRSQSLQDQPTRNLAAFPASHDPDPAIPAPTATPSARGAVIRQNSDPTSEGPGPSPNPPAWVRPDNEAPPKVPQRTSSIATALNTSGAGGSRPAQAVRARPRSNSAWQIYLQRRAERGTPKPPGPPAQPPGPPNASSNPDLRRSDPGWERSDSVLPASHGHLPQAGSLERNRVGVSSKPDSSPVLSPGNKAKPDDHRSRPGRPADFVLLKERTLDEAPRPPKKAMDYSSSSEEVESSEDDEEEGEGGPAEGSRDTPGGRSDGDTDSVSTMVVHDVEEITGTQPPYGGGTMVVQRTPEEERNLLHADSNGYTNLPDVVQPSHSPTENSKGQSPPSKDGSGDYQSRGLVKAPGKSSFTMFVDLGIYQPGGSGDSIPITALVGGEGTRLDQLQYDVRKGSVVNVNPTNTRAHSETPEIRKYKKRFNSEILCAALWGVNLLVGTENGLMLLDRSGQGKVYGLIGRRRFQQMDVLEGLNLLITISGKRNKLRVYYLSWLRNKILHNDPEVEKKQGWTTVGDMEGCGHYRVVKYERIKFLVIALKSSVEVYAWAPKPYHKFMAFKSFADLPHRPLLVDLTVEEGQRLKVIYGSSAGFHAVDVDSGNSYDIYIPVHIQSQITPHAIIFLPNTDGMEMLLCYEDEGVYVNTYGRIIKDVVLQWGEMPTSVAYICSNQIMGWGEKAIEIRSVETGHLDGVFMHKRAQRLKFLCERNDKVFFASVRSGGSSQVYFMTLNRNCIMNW
T1 sequence (Q96SB4 whole entry): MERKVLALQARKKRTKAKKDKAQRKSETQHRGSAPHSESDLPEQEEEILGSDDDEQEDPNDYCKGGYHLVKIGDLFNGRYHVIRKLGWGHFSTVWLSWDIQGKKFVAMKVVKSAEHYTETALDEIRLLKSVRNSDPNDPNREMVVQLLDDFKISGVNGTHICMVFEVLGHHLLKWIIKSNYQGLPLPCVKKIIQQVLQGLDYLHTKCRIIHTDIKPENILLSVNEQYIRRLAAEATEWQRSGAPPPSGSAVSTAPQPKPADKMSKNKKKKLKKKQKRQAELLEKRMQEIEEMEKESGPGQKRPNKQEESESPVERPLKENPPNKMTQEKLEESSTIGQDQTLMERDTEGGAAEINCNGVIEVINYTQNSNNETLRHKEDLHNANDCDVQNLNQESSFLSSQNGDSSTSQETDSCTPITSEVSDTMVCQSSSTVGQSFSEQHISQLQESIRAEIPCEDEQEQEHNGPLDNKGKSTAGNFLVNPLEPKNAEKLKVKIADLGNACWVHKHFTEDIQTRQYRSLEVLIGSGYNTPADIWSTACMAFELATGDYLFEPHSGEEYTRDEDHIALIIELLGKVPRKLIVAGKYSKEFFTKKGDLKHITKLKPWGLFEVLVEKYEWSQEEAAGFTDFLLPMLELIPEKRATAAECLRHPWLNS

## Cc1cccc(-c2nc(Nc3ccc4ncsc4c3)c3ccccc3n2)n1 [NK140]
[1]
  KiNativ in-cell binding, % Inhibition, SRPK1, SRPK2: 80.8%
[2]
  inhibition at 2 µM: 67.9%
[3]
  Translocation of TFEB to the nucleus, cellular fractionation (in words): increased translocation of TFEB to the nucleus
[4]; Labeling Site Lys1, YVAVKIHQLNK
  inhibition at 2 µM: 52.7%
[4]; Labeling Site Lys2, YLNEIKPPIIHYDLKPGNILLVNGTACGEIK
  inhibition at 2 µM: 50%
[5]
  CLEAR gene expression (in words): upregulation of a number of CLEAR genes
[6]
  TFE3 nuclear translocation in response to compound after PRKD knockdown (in words): no increased activity in the TFE3 translocation assay; also recorded: not altered by knockdown of PRKD

## Cc1cccc(-c2nc(N(C)c3ccc4ncsc4c3)c3ccccc3n2)n1 [NK-161]
[7]
  KINOMEscan MINK1/MINK: 22
[8]
  KINOMEscan MAPK9/JNK2: 7
